Our source for the TGI values is PubChem BioAssay (NCI).

Test systems include NCI-H226 lung; SK-MEL-28 melanoma; T-47D breast; MDA-N; NCI/ADR-RES ovarian; HS 578T breast; SF-268 CNS; NCI-H460 lung; HOP-62 NSCLC; OVCAR-4 ovarian; ACHN renal; EKVX NSCLC; COLO 205 colon; KM12 colon; BT-549 breast; PC-3 prostate; OVCAR-5 ovarian; HL-60(TB) leukemia; SR leukemia.
What all share (experiment): inhibition of tumour cell growth, NCI panel, 48 h

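Interpolation was linear, between the two tested concentrations surrounding the appropriate level; five concentrations were tested over 48 hours in 96-well plates. TGI is the concentration that stops growth completely.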 Where only a bound is given, the exact number is not on record here.

With `Cc1cc(C)nc(NS(=O)(=O)c2ccc(NNc3c4ccccc4nc4c(C(=O)Nc5ccc(S(N)(=O)=O)cc5)cccc34)cc2)n1`, the TGI with NCI-H226 lung was more than 100 µM; in the test on SK-MEL-28 melanoma, 92.3 µM; with T-47D breast, more than 100 µM; with MDA-N, more than 100 µM; in the test with NCI/ADR-RES ovarian, more than 100 µM; in the test with HS 578T breast, more than 100 µM. Further, the TGI in the test on SF-268 CNS, with NCI-H460 lung, with HOP-62 NSCLC, in the test with OVCAR-4 ovarian, in the test on ACHN renal and with EKVX NSCLC was more than 100 µM each time. Further, the TGI is more than 100 µM in the test on COLO 205 colon; more than 100 µM in the test on KM12 colon; more than 100 µM in the test with BT-549 breast; 32.9 µM in the test on PC-3 prostate; more than 100 µM in the test on OVCAR-5 ovarian; more than 100 µM in the test with HL-60(TB) leukemia. The TGI with SR leukemia is 73.3 µM.
In the case of `O=c1c2cc(-c3ccccc3)sc2nc2n1N=C(c1ccc(Cl)cc1)CS2`, the TGI in the test on NCI-H226 lung, in the test on SK-MEL-28 melanoma, with T-47D breast, in the test on MDA-N, in the test on NCI/ADR-RES ovarian and in the test with HS 578T breast was more than 100 µM each time. The TGI in the test on SF-268 CNS, in the test with NCI-H460 lung, in the test on HOP-62 NSCLC, in the test on OVCAR-4 ovarian, with ACHN renal and in the test on EKVX NSCLC was more than 100 µM throughout. Moreover, the TGI in the test with COLO 205 colon, with KM12 colon, in the test with BT-549 breast, with PC-3 prostate, in the test with OVCAR-5 ovarian and in the test on HL-60(TB) leukemia was more than 100 µM each time. The compound also came in with a TGI with SR leukemia of more than 100 µM.
For the compound `Cc1occc1C(=S)Nc1ccc(Cl)c(C(=O)OC(C(C)C)C(C)C)c1`, the TGI worked out at 32.2 µM in the test on NCI-H226 lung; 29.8 µM in the test on SK-MEL-28 melanoma; 18.1 µM in the test on T-47D breast; 29 µM with MDA-N; 26.3 µM with NCI/ADR-RES ovarian; 48.5 µM in the test on HS 578T breast. Also, the TGI stood at 45.1 µM with SF-268 CNS; 31.6 µM in the test with NCI-H460 lung; 42.3 µM with HOP-62 NSCLC; 41.9 µM with OVCAR-4 ovarian; 24.9 µM with ACHN renal; 27.3 µM in the test on EKVX NSCLC. The TGI in the test with COLO 205 colon was determined as 34.4 µM; in the test on KM12 colon, 29.9 µM; in the test with BT-549 breast, 34.6 µM; in the test with PC-3 prostate it was 25.4 µM; in the test on OVCAR-5 ovarian, 57.2 µM; in the test on HL-60(TB) leukemia, 29.8 µM. Also, the TGI in the test with SR leukemia worked out at 28 µM.
With `O=C(N/N=C/c1c(-c2ccccc2)no[n+]1[O-])N1CCOCC1`, the TGI in the test on NCI-H226 lung, with SK-MEL-28 melanoma, in the test on T-47D breast, in the test with MDA-N, with NCI/ADR-RES ovarian and with HS 578T breast was more than 100 µM in each case. In addition, the TGI in the test with SF-268 CNS, with NCI-H460 lung, with HOP-62 NSCLC, with OVCAR-4 ovarian, with ACHN renal and in the test on EKVX NSCLC was more than 100 µM in each case. Further, the TGI in the test on COLO 205 colon, in the test with KM12 colon, in the test with BT-549 breast, in the test with PC-3 prostate, in the test with OVCAR-5 ovarian and in the test with HL-60(TB) leukemia was more than 100 µM in each case. The compound further showed a TGI with SR leukemia of 45.1 µM.
Consider `Nc1ccc2c(=O)cc(-c3cccs3)[nH]c2n1`, for which the TGI with NCI-H226 lung is 8.62 µM; in the test with SK-MEL-28 melanoma, more than 100 µM; in the test on T-47D breast, more than 100 µM; in the test with MDA-N it was 1.73 µM; in the test with NCI/ADR-RES ovarian it was 5.5 µM; with HS 578T breast it was more than 24.9 µM. The TGI in the test on SF-268 CNS, in the test on NCI-H460 lung, in the test with HOP-62 NSCLC, with OVCAR-4 ovarian, in the test with ACHN renal and in the test on EKVX NSCLC was more than 100 µM each time. The TGI in the test with COLO 205 colon is 6.95 µM; in the test on KM12 colon it was more than 100 µM; with BT-549 breast, more than 100 µM; with PC-3 prostate, more than 28.3 µM; in the test with OVCAR-5 ovarian it was more than 100 µM; in the test on HL-60(TB) leukemia, 0.671 µM. In the test with SR leukemia, this compound showed a TGI of more than 34 µM.
As to `NC(N)=NS(=O)(=O)c1ccc(NNc2c3ccccc3nc3c(C(=O)Nc4ccc(S(=O)(=O)N=C(N)N)cc4)cccc23)cc1`, the TGI in the test with NCI-H226 lung is more than 100 µM; in the test on SK-MEL-28 melanoma, 89.6 µM; in the test with T-47D breast, more than 100 µM; with MDA-N, more than 100 µM; with NCI/ADR-RES ovarian, more than 100 µM; with HS 578T breast, more than 100 µM. The TGI with SF-268 CNS is more than 100 µM; in the test on NCI-H460 lung it was more than 100 µM; with HOP-62 NSCLC it was more than 100 µM; in the test with OVCAR-4 ovarian, more than 100 µM; in the test with ACHN renal, more than 100 µM; in the test with EKVX NSCLC, 95.8 µM. The TGI in the test with COLO 205 colon was more than 100 µM; in the test with KM12 colon, more than 100 µM; with BT-549 breast, more than 100 µM; with PC-3 prostate, more than 100 µM; in the test with OVCAR-5 ovarian, more than 100 µM; with HL-60(TB) leukemia, 88.8 µM. In the test on SR leukemia, this compound registered a TGI of more than 100 µM.
Take `Nc1nc(N)c2cc(-c3ccccc3)cnc2n1`: the TGI is 33.1 µM in the test with NCI-H226 lung; 35 µM in the test with SK-MEL-28 melanoma; more than 100 µM with T-47D breast; 25.4 µM with MDA-N; more than 100 µM in the test on NCI/ADR-RES ovarian; 46.2 µM in the test with HS 578T breast. Moreover, the TGI was found to be 8.78 µM in the test on SF-268 CNS; 24.3 µM in the test with NCI-H460 lung; 40.9 µM in the test with HOP-62 NSCLC; 35.2 µM with OVCAR-4 ovarian; 26.3 µM in the test on ACHN renal; 45.1 µM in the test on EKVX NSCLC. Besides, the TGI with COLO 205 colon stood at 27.3 µM; with KM12 colon it was 30.1 µM; with BT-549 breast, 30.2 µM; in the test with PC-3 prostate it was 20.6 µM; in the test with OVCAR-5 ovarian, 27.7 µM; in the test with HL-60(TB) leukemia, 28.4 µM. The TGI in the test with SR leukemia was 21.2 µM.
Consider `c1ccc(C2=NCCN2)c(C2=NCCN2)c1`, for which the TGI with NCI-H226 lung, in the test on SK-MEL-28 melanoma, with T-47D breast, in the test on MDA-N, with NCI/ADR-RES ovarian and with HS 578T breast was more than 100 µM throughout. Also, the TGI in the test with SF-268 CNS, with NCI-H460 lung, in the test on HOP-62 NSCLC, in the test with OVCAR-4 ovarian, in the test on ACHN renal and with EKVX NSCLC was more than 100 µM in each case. Further, the TGI in the test with COLO 205 colon, in the test on KM12 colon, in the test on BT-549 breast, with PC-3 prostate, in the test on OVCAR-5 ovarian and in the test on HL-60(TB) leukemia was more than 100 µM throughout. Besides, the TGI in the test on SR leukemia is more than 100 µM.
Regarding `CN(C)CCCn1c(Cc2ccc(Cl)cc2)nc2cc(C(F)(F)F)ccc21`, the TGI was 36.4 µM with NCI-H226 lung; 33.5 µM in the test on SK-MEL-28 melanoma; 27.2 µM in the test with T-47D breast; 25.4 µM in the test with MDA-N; 33.6 µM in the test with NCI/ADR-RES ovarian; 33.6 µM in the test with HS 578T breast. In addition, the TGI turned out to be 29.1 µM in the test with SF-268 CNS; 26 µM in the test with NCI-H460 lung; 28.8 µM with HOP-62 NSCLC; 27.6 µM in the test with OVCAR-4 ovarian; 26 µM in the test with ACHN renal; 32.7 µM with EKVX NSCLC. Moreover, the TGI with COLO 205 colon was found to be 29.3 µM; with KM12 colon, 28.1 µM; in the test with BT-549 breast, 32.4 µM; in the test with PC-3 prostate it was 29 µM; in the test on OVCAR-5 ovarian, 32.5 µM; in the test on HL-60(TB) leukemia it was 61.9 µM. The TGI with SR leukemia was more than 100 µM.
For `Cc1c(S(=O)(=O)O)ccc(N=Nc2c(O)c(C(=O)O)cc3ccccc23)c1Cl`, the TGI with NCI-H226 lung, in the test with SK-MEL-28 melanoma, with T-47D breast, with MDA-N, with NCI/ADR-RES ovarian and in the test on HS 578T breast was more than 100 µM throughout. In addition, the TGI with SF-268 CNS, with NCI-H460 lung, in the test on HOP-62 NSCLC, in the test with OVCAR-4 ovarian, in the test with ACHN renal and with EKVX NSCLC was more than 100 µM throughout. Moreover, the TGI in the test with COLO 205 colon, in the test with KM12 colon, in the test with BT-549 breast, in the test with PC-3 prostate, in the test on OVCAR-5 ovarian and with HL-60(TB) leukemia was more than 100 µM each time. The TGI in the test on SR leukemia is more than 90.2 µM.
As for `COc1ccc(N2C(=O)[C@H]3[C@H]4CC(C(C)(C)C)CC[C@H]4c4c(n(C)c5ccccc45)[C@H]3C2=O)cc1` (some centres undefined), the TGI in the test on NCI-H226 lung is more than 100 µM; in the test on SK-MEL-28 melanoma, more than 100 µM; with T-47D breast, more than 100 µM; with MDA-N it was more than 100 µM; in the test with NCI/ADR-RES ovarian it was more than 100 µM; with HS 578T breast, more than 86 µM. Moreover, the TGI is more than 100 µM with SF-268 CNS; more than 63.8 µM in the test on NCI-H460 lung; more than 5.62 µM in the test on HOP-62 NSCLC; more than 100 µM in the test with OVCAR-4 ovarian; more than 100 µM with ACHN renal; more than 46.4 µM in the test on EKVX NSCLC. Besides, the TGI was more than 100 µM with COLO 205 colon; more than 61.3 µM in the test with KM12 colon; more than 100 µM with BT-549 breast; more than 100 µM in the test with PC-3 prostate; more than 100 µM in the test with OVCAR-5 ovarian; more than 100 µM with HL-60(TB) leukemia. The TGI in the test on SR leukemia is more than 100 µM.
